For series [1] the following is noted: Dog pharmacokinetics (published values); cited from earlier work.
Series [2] concerns the target T1, CYP 3A4 (Homo sapiens, UniProt P08684).
T1 construct: individual CYPs in a pool of human liver microsomes; from tissue; host or cells: pooled human liver microsomes
Nature of the series: Reversible CYP inhibition in human liver microsomes, CYP 3A4. The series is classed as in vitro ADME. Here is the method:
(§1) Reversible inhibition of cytochrome P450s (CYPs) in human liver microsomes was tested using prototypical, isoform-selective activity assays for individual CYPs in a pool of human liver microsomes (i.e., testosterone for CYP 3A4, phenacetin for CYP 1A2, bufuralol for CYP 2D6, S-mephenytoin for CYP 2C19, and diclofenac for CYP 2C9). The assay provides 8-point IC50 determinations in the range of 0.010 to 50 μM drug concentrations for major isoforms of CYP450.
A general note: Microsomes from liver hold many membrane-bound enzymes, among them those of drug oxidation.

The target of series [3] is T2, CYP 2C19 (Homo sapiens, UniProt P33261).
T2 construct: individual CYPs in a pool of human liver microsomes; from tissue; host or cells: pooled human liver microsomes
T2 sequence (P33261 whole entry): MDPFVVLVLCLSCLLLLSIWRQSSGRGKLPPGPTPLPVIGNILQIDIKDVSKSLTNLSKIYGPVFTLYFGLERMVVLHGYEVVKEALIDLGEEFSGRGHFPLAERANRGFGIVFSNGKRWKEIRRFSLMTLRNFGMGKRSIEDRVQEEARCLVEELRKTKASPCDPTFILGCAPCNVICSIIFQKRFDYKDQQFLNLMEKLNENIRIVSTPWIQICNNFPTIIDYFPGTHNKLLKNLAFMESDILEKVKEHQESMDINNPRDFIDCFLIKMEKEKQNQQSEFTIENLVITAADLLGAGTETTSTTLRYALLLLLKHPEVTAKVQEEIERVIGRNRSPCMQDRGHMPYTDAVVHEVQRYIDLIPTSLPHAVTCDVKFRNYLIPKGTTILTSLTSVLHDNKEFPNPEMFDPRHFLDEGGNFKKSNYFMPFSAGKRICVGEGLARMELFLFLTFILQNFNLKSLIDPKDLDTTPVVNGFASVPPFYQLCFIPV
The experiment in a line: Reversible CYP inhibition in human liver microsomes, CYP 2C19. Conditions: S-mephenytoin, read-out: Cyp microsome IC50, 2C19. Type of series: in vitro ADME. Here is the method: as §1

The target of series [4] is T3, CYP 2C9 (Homo sapiens, UniProt P11712).
T3 construct: individual CYPs in a pool of human liver microsomes; from tissue; host or cells: pooled human liver microsomes
T3 sequence (P11712 whole entry): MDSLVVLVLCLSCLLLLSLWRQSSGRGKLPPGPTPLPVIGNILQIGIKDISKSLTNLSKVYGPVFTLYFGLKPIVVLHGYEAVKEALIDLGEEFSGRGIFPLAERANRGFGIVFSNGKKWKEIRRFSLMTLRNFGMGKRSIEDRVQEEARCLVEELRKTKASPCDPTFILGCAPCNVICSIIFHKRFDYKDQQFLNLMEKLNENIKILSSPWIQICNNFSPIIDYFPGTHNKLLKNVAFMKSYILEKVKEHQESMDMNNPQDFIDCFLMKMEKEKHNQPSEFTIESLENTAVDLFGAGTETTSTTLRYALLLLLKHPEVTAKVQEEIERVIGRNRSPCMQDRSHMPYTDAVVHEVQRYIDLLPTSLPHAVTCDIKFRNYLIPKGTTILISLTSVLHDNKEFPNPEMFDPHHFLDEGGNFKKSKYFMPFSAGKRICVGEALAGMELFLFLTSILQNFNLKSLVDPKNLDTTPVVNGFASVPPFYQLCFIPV
The experiment in a line: Reversible CYP inhibition in human liver microsomes, CYP 2C9. Type of series: in vitro ADME. Conditions: diclofenac, read-out: Cyp microsome IC50, 2C9. Here is the method: as §1

The nature of series [5]: Hepatocyte stability assay, mouse. Type of series: in vitro ADME. The procedure:
(§2) Example 7. In Vitro Metabolic Stability of Isoxazoline Compounds in cd-1 Mouse, sd Rat, Beagle Dog, Cynomolgus Monkey and Human Cryopreserved Hepatocytes
(§3) Isoxazoline compounds (at 1 μM) were incubated with cryopreserved hepatocytes (0.5×10^6 cells per mL) in duplicates (n=2) at 37° C. using 96-well plate format.
(§4) Time points were 0, 15, 30, 60 and 90 minutes in separate plates and medium control samples without cells at 0 and 90 minutes were also incubated. At each time point the reaction was stopped by adding organic solution containing internal standard (IS).
(§5) Positive controls 7-ethoxycoumarin and 7-hydroxycoumarin were included in parallel.
(§6) The samples were analyzed by LC-MS/MS. Disappearance of the test compound was assessed based on peak area ratios of analyte/IS (no standard curve).
(§7) Intrinsic clearance and t½ values were then calculated.

A short description of series [6]: Hepatocyte stability assay, rat. Type of series: in vitro ADME. The settings on record: SD, hepatocytes. Here is the method:
as §2, §3, §4, §5, §6, §7

Series [7] in a line: Hepatocyte stability assay, dog. The series is classed as in vitro ADME. Conditions: Beagle, hepatocytes. Here is the method:
as §2, §3, §4, §5, §6, §7

A short description of series [8]: Hepatocyte stability assay, human. The settings on record: hepatocytes. The series is classed as in vitro ADME. The procedure: as §2, §3, §4, §5, §6, §7
The nature of series [9]: Plasma protein binding (equilibrium dialysis), mouse. Type of series: in vitro ADME. Conditions: 2 μM. Here is the method:
(§8) Frozen plasma (EDTA-K2 as anticoagulant) pooled from multiple individuals of various species was used as a test matrix. The plasma was purchased from commercial vendors or prepared in house from animals. Warfarin was used as a positive control.
(§9) Isoxazoline compounds were spiked into the blank matrix at the final concentration of 2 μM.
(§10) A 150 μL aliquot of matrix sample was added to one side of the chamber in a 96-well equilibrium dialyzer plate (HTD dialysis) and an equal volume of dialysis buffer was added to the other side of the chamber. An aliquot of matrix sample was harvested before the incubation and used as T0 samples for recovery calculation. Triplicate incubations were performed.
(§11) The dialyzer plate was placed in a humidified incubator and rotated slowly for 4 hours at 37° C. After incubation, samples were taken from the matrix side as well as the buffer side. The plasma sample was matched with equal volume of blank buffer; and buffer samples were matched with equal volume of blank plasma. The matrix-matched samples were quenched with a stop solution containing internal standard.
(§12) The samples were analyzed by LC-MS/MS.
(§13) Then, % bound fraction at 4 hours (% bound=1−% unbound) and % recovery in incubates at 4 hours were calculated.
(§14) The stability of compounds in mouse (ms), rat (r), dog (d), cynomolgus monkey (cy), and human (hu) plasma is shown in Table 10 by the percentages of compounds remaining at two hours.
A general note: In equilibrium dialysis free small molecules cross a membrane that holds back macromolecules.

Series [10] is described as follows: Plasma protein binding (equilibrium dialysis), rat. Type of series: in vitro ADME. Conditions: 2 μM. Here is the method:
as §8, §9, §10, §11, §12, §13, §14

A short description of series [11]: Plasma protein binding (equilibrium dialysis), dog. Type of series: in vitro ADME. The settings on record: 2 μM. Here is the method: as §8, §9, §10, §11, §12, §13, §14
Series [12] in a line: Plasma protein binding (equilibrium dialysis), human. Conditions: 2 μM. The series is classed as in vitro ADME. Here is the method:
as §8, §9, §10, §11, §12, §13, §14

Series [13] is described as follows: Bidirectional permeability in Caco-2 cells. The series is classed as in vitro ADME, human. Conditions: for Papp B→A at 2 h, 2 μM / Papp A→B at 2 h, 2 μM: human, Caco-2, pH 7.4. Here is the method:
The suitability of the compound for oral dosing was evaluated via a Caco-2 permeability assay to predict human intestinal permeability and to investigate drug efflux. Afoxolaner racemate was evaluated for P-glycoprotein (PGP) inhibition in a MDCK permeability assay.
Caco-2 Cells (obtained from ATCC) were seeded onto PET membranes of 96-well Insert Plates for 21-28 days for confluent cell monolayer formation. The integrity of the monolayer was verified by performing Lucifer yellow rejection assay. The quality of the monolayer was also verified by measuring the unidirectional (A→B) permeability of fenoterol/nadolol (low permeability marker), propranolol/metoprolol (high permeability marker) and Bi-directional permeability of Digoxin (a P-glycoprotein substrate marker) in duplicate wells.
Standard assay conditions are as follows: each test compound was tested at 2 μM (DMSO≤1%) with two replicates; bi-directional transport was evaluated (A→B and B→A); incubation was for 2 hours with a single time point; the transport buffer contained HBSS with 10 mM HEPES at pH7.40±0.05; and incubation occurred at 37±1° C., 5% CO2 and relatively saturated humidity. The dosing solution was spiked and mixed with transport buffer and Stop Solution (containing an appropriate internal standard (IS)) to provide the T0 sample. At the end of incubation, sample solutions from both donor and receiver wells were immediately mixed with Stop Solution. All samples, including T0 samples, donor samples, and receiver samples, were analyzed using LC/MS/MS. Concentrations of test compound are expressed as peak area ratio of analytes versus IS without a standard curve.
For orientation: Caco-2 cells form a polarised layer with tight junctions and transporters.

[14] abbreviates: CD-1, hepatocytes, mouse (ms), 1 μM, read-out: Hepatocyte stability (t½).
Where [15] appears, read: rat (r), 1 μM, read-out: Hepatocyte stability (t½).
Setting [16] is: dog (d), 1 μM, read-out: Hepatocyte stability (t½).
The mark [17] stands for this setting: human (hu), 1 μM, read-out: Hepatocyte stability (t½).
Setting [18] is: B→A, 2 μM, 2 hours, read-out: Caco2 B-A.

pIC50: −log10 of the molar value. Read-outs that look alike come from different tables or passages of the source.

T1 sequence (P08684 whole entry): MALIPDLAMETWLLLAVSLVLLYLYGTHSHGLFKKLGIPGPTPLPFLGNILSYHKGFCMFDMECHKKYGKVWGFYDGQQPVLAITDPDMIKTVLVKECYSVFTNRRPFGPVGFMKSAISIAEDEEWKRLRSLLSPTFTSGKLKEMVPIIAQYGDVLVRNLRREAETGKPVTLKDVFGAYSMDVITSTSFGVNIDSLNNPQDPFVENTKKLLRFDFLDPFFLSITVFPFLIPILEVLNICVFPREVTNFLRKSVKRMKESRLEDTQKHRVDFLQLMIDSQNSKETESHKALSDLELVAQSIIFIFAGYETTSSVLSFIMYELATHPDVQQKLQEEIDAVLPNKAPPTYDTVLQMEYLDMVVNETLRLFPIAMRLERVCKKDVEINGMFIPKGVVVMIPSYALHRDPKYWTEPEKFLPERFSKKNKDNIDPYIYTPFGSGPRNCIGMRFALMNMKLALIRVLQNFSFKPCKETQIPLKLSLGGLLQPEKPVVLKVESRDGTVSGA

As to `Cc1cc(C2=NO[C@](c3cc(Cl)cc(Cl)c3)(C(F)(F)F)C2)ccc1C(=O)NCC(=O)NCC(F)(F)F` [Fluralaner, fluralaner], in series [1], the “CL (plasma clearance)” value was 5.83 mL/h/kg, the Oral bioavailability is reported as 11-34%, the “V (volume of distribution)” value is 3.1 L/kg and the half-life is 360 h.

What is called pIC50 is the IC50 on a negative log10 scale, so that one unit is a factor of ten. As to `O=C(CNC(=O)c1ccc(C2=NO[C@](c3cc(Cl)cc(C(F)(F)F)c3)(C(F)(F)F)C2)c2ccccc12)NCC(F)(F)F` (racemic) [Afoxolaner, afoxolaner], the pIC50 in series [2] is under 4.30; in series [3] it was 5.51; in series [4], 5.54. Further, the half-life at 1 μM in series [5] (setting [14]), in [6] (setting [15]), in series [7] (setting [16]) and in [8] (setting [17]) was over 3.62 h each time. Further, the “Plasma protein % binding” value in series [9] (mouse (ms), 4 hours) is given as 97.8 (ms), %; in series [10] (rat (r), 4 hours), 97.3 (r), %; in series [11] (dog (d), 4 hours), >99.9 (d, hu) %; in [12] (human (hu), 4 hours), >99.9 (d, hu) %. Moreover, in series [13] (A→B, 2 μM, 2 hours), the “Caco2 A-B” value was <0.0003/ 10^−6 cm/sec. Also, in [13] (setting [18]), the Papp B→A at 2 h, 2 μM is 0.24 ×10⁻⁶ cm/s. In addition, the “CL (plasma clearance)” value in [1] is 4.95 mL/h/kg. Also, in [1], the Oral bioavailability is given as 74%. Further, the “V (volume of distribution)” value in [1] is recorded as 2.68 L/kg. In addition, the half-life in series [1] was 372 h.

Turning to `O=C(CNC(=O)c1ccc(C2=NO[C@@](c3cc(Cl)cc(C(F)(F)F)c3)(C(F)(F)F)C2)c2ccccc12)NCC(F)(F)F` [(S)-afoxolaner], the negative logarithm of the IC50 (pIC50) in series [2] was under 4.30; in series [3], 5.96; in [4], 5.38. Moreover, the half-life at 1 μM is 1.07 h in series [5] (setting [14]), 1 h in series [6] (setting [15]), 0.533 h in [7] (setting [16]) and 1.1 h in series [8] (setting [17]). In addition, the “Plasma protein % binding” value in series [9] (mouse (ms), 4 hours) is given as >99.9 (ms, r, hu), %; in series [10] (rat (r), 4 hours) it was >99.9 (ms, r, hu), %; in series [11] (dog (d), 4 hours), 99.5 (d) %; in series [12] (human (hu), 4 hours), >99.9 (ms, r, hu), %. The Papp A→B at 2 h, 2 μM in series [13] (A→B, 2 μM, 2 hours, read-out: Caco2 A-B) is under 0.2 ×10⁻⁶ cm/s. For the same compound, the Papp B→A at 2 h, 2 μM in [13] (setting [18]) was found to be 0.7 ×10⁻⁶ cm/s.

For the compound `O=C(CNC(=O)c1ccc(C2=NO[C@@](c3cc(Cl)cc(Cl)c3)(C(F)(F)F)C2)c2ccccc12)NCC(F)(F)F` [(S)-4-(5-(3,5-dichlorophenyl)-5-(trifluoromethyl)-4,5-dihydroisoxazol-3-yl)-N-(2-oxo-2-((2,2,2-trifluoroethyl)amino)ethyl)-1-naphthamide], the pIC50 in [2] is under 4.30; in series [3], 6.22; in series [4] it was 5.72. For the same compound, the half-life at 1 μM in series [5] (CD-1, mouse, hepatocytes) worked out at 0.983 h; in [6] (rat), 1.28 h; in series [7] (dog) it was 0.683 h; in series [8] (human), 1.05 h. Also, the “Plasma protein % binding” value is >99.9% (ms, r, d, hu) in series [9] (mouse, 4 h); >99.9% (ms, r, d, hu) in series [10] (rat, 4 h); >99.9% (ms, r, d, hu) in [11] (dog, 4 h); >99.9% (ms, r, d, hu) in series [12] (human, 4 h). This compound also had a Papp A→B at 2 h, 2 μM in [13] of under 0.29 ×10⁻⁶ cm/s. The compound also returned a Papp B→A at 2 h, 2 μM in [13] of 0.56 ×10⁻⁶ cm/s.
